From PubChem BioAssay AID434987 (Southern Research Specialized Biocontainment Screening …, 2010)
The source made the active and inactive calls. How the calls were made is not given here.

System: M. tuberculosis H37Rv growth inhibition with meropenem
Assay: dose response, H37Rv, with and without meropenem (AID 434987);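 further: growth over 7 days at 37 °C before Alamar Blue read on day 9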
[1] = M. tuberculosis H37Rv growth inhibition, measured here: IC50 without meropenem
[2] = M. tuberculosis H37Rv growth inhibition, measured here: IC90 without meropenem
[3] = measured here: IC90 with meropenem

Row | Compound | IC50 | IC50 [1] [µM] | IC90 [2] [µM] | IC90 [3] [µM]
1 | O=C(c1csc2c1CCCC2)n1cccn1 | 49.4 µM (inactive) | 97.3 | > 100 | > 100
2 | N#Cc1c(-c2cccs2)cc(-c2ccccn2)nc1N | 6.92 µM | > 100 | > 100 | > 100
3 | COc1ccc(CN(CCC#N)C(=S)NC(=O)c2ccccc2)cc1 | 10.6 µM | 79.1 | > 100 | > 100
4 | c1ccc(CSc2nnc(-c3ccco3)o2)cc1 | > 100 µM (inactive) | > 100 | > 100 | > 100
5 | O=C(NC1CCCCCCC1)c1ccc(Br)cc1 | > 100 µM (inactive) | > 100 | > 100 | > 100
6 | O=C(NNC1=C(C(=O)C(F)(F)F)CCC1)c1cccc(O)c1 | 68 µM (inactive) | > 100 | > 100 | > 100
7 | O=C(CSC1CS(=O)(=O)c2cc([N+](=O)[O-])ccc21)NNC(=O)c1ccccc1 (configuration not stated) | 11.8 µM | 89 | 94.3 | 13.3
8 | Cc1ccc(SCc2c(C#N)c3ccccc3n2C)cc1 | > 100 µM (inactive) | > 100 | > 100 | > 100
9 | CCCc1c(C)nc2c(OC)cccc2c1SCC(=O)O | > 100 µM (inactive) | > 100 | > 100 | > 100
10 | Cc1nn(-c2ccccc2)c(N2CCCC2)c1/C=C1\N=C(c2ccc(F)cc2)OC1=O | 10.7 µM (inactive) | 23.4 | 26.8 | 22.9
11 | COc1ccc(NC(=O)CCC2CCCC2)cc1OC | > 100 µM (inactive) | > 100 | > 100 | > 100
12 | Cc1cc(C(=O)CSc2nnnn2-c2ccccc2)c(C)n1-c1ccc2c(c1)OCO2 | 44.9 µM (inactive) | 49.7 | > 100 | 60.9
13 | Cc1cccc(Cl)c1NC(=S)NN | 36 µM (inactive) | 44.5 | 59.5 | 55.1
14 | CCN(CC)C(=O)C1CCCN(c2ccc([N+](=O)[O-])cc2/C=N/NC(=O)c2cccc(O)c2)C1 (configuration not stated) | 48.1 µM (inactive) | 47.1 | 70.6 | 55.3
15 | COc1cc(C(F)(F)F)nc2ccc(C#CCOC(=O)Nc3ccccc3)cc12 | > 100 µM (inactive) | > 100 | > 100 | > 100
16 | Cc1ccc(C)c(S(=O)(=O)N2CCN(CC(=O)NC(C)c3ccccc3)CC2)c1 (configuration not stated) | 98 µM (inactive) | 99.7 | > 100 | > 100
17 | C[C@]12CC[C@@H]3c4ccc(OS(=O)(=O)O)cc4CC[C@H]3[C@@H]1CCC2=O | > 100 µM (inactive) | > 100 | > 100 | > 100
18 | c1ccc(-n2c3ccccc3c3ccccc32)cc1 | 3.27 µM | > 100 | > 100 | 22.7
19 | COC(=O)/C(=C\Nc1ccc(Cl)c2ccccc12)c1ncc(C(F)(F)F)cc1Cl | 36 µM | > 100 | > 100 | > 100
20 | c1ccc(-c2oc3ncnc(NCCN4CCOCC4)c3c2-c2ccccc2)cc1 | > 100 µM (inactive) | > 100 | > 100 | > 100

Row | Compound | IC50 | IC50 [1] [µM] | IC90 [2] [µM] | IC90 [3] [µM]
21 | Cc1cc(C(=O)CN2C(=O)NC(c3ccccc3)(c3ccccc3)C2=O)c(C)n1Cc1ccccc1 | > 100 µM (inactive) | > 100 | > 100 | > 100
22 | COc1ccccc1CNC(=O)c1ccc(SC)cc1OC | 49.8 µM (inactive) | 83.5 | > 100 | > 100
23 | NC(N)=NS(=O)(=O)c1ccc(N)cc1 | > 100 µM (inactive) | > 100 | > 100 | > 100
24 | CC(=O)Nc1ccc(SCC(=O)c2cc(C)n(C)c2C)cc1 | 47 µM (inactive) | 57.3 | > 100 | 53.6
25 | COCCNC(=S)N/N=C(\C)c1cccc(OC)c1 | 17.8 µM | 47.1 | > 100 | > 100
26 | CCOC(=O)Cc1nc2ccccc2[nH]1 | 15.3 µM | 49.6 | > 100 | > 100
27 | O=C(OCn1nnc2ccccc2c1=O)c1ccc2c(=O)n3c(nc2c1)CCC3 | 18 µM (inactive) | 35.4 | > 100 | 26.1
28 | O=[N+]([O-])c1cc(Cl)cc(/C=N/NC(=S)Nc2cc(S(=O)(=O)N3CCOCC3)ccc2Cl)c1O | 6.3 µM | 18.2 | 30.5 | 29.3
29 | Cc1c(OCc2ccc(C(=O)O)cc2)ccc2c(-c3ccccc3)cc(=O)oc12 | 1.42 µM | 46.2 | 96.7 | 2.09
30 | C/C(=N/NC(=O)c1ccc(Cl)s1)c1ccc(NC(=O)COc2ccc(Cl)cc2)cc1 | > 100 µM (inactive) | > 100 | > 100 | > 100
31 | CCNC(=S)N/N=C1\C(=O)c2cccc3cccc1c23 | 5.46 µM | > 100 | > 100 | 7.61
32 | O=C(CSc1ccc([N+](=O)[O-])cn1)Nc1ccc(N2CCOCC2)cc1 | 4.82 µM | 17.6 | > 100 | > 100
33 | C=CCn1c(SCc2ccc(C(=O)Nc3nccs3)cc2)nnc1-c1ccc(C)c(Cl)c1 | 95.3 µM (inactive) | > 100 | > 100 | > 100
34 | O=c1oc(CCCO)cc2ccc(C#Cc3ccsc3)cc12 | > 100 µM (inactive) | > 100 | > 100 | > 100
35 | O=C1OC(c2ccco2)=N/C1=C\c1ccc(-c2cccc(C(F)(F)F)c2)o1 | 48.9 µM (inactive) | 75.3 | > 100 | 53.4
36 | Cc1ccc(-c2cc(C(=O)N/N=C/C=C/c3ccccc3)n[nH]2)o1 | > 100 µM (inactive) | > 100 | > 100 | > 100
37 | COc1ccc2c(c1)c(C(C)=O)c(C)n2-c1ccccc1 | 0.336 µM | > 100 | > 100 | 6.92
38 | COc1cccc(/C=N/NC(=O)NC23CC4CC(CC(C4)C2)C3)c1O | 2.93 µM | 46.9 | > 100 | 26.8
39 | COc1ccnc(CS(=O)c2nc3cc(OC(F)F)ccc3[nH]2)c1OC (configuration not stated) | > 100 µM (inactive) | > 100 | > 100 | > 100
40 | O=C(NC1c2ccccc2-c2ccccc21)c1ccco1 | > 100 µM (inactive) | > 100 | > 100 | > 100

Row | Compound | IC50 | IC50 [1] [µM] | IC90 [2] [µM] | IC90 [3] [µM]
41 | Cc1ccccc1CSc1nnc(C)c(=O)n1N | 19.5 µM (inactive) | 45.4 | > 100 | 32.3
42 | COc1cc(/C=N/NC(=S)Nc2cccc(S(=O)(=O)N(C)C)c2)cc(OC)c1O | > 100 µM (inactive) | > 100 | > 100 | > 100
43 | COc1ccc(NC(=O)COC(=O)Cc2ccc(-c3ccccc3)cc2)c(OC)c1 | > 100 µM (inactive) | > 100 | > 100 | > 100
44 | CCCCC12CN3CC(C)(CN(C1)C3c1ccc([N+](=O)[O-])o1)C2=O (configuration not stated) | 4.12 µM | 27 | 98.7 | 23.5
45 | COc1cc(NC(=O)C2CCCCC2)c(OC)cc1NC(=O)CN1CCCCC1 | 9.28 µM | 47.4 | > 100 | > 100
46 | COc1cc(NC(=O)c2ccc(Cl)cc2)c(OC)cc1NC(=O)CN1CCOCC1 | > 100 µM (inactive) | > 100 | > 100 | > 100
47 | COc1cc(/C=C/C(=O)OCC(=O)Nc2cc(C)c(C)cc2[N+](=O)[O-])ccc1O | 43 µM (inactive) | 92.8 | > 100 | > 100
48 | CCCOc1ccc(C(=O)N/N=C/c2ccc(-c3ccc(S(=O)(=O)Nc4ncccn4)cc3)o2)cc1 | 22.4 µM (inactive) | 39.8 | > 100 | 26.1
49 | Cc1ccc(-n2ncc3c(=O)n(CC#N)cnc32)cc1C | 20.9 µM | 51.3 | > 100 | > 100
50 | Cn1c(=S)[nH]c2sc3c(c2c1=O)CCC(C(C)(C)C)C3 (configuration not stated) | 38 µM (inactive) | 79 | > 100 | > 100
51 | COc1ccc(-c2cc(C(F)F)nc(-n3nc(C)cc3C)n2)cc1 | 24.3 µM (inactive) | 47.4 | > 100 | 54.1
52 | Cc1ccc(/C=N/NC(=O)c2cccs2)s1 | > 100 µM (inactive) | > 100 | > 100 | > 100
53 | Cc1ccc(NC(=O)C2(c3ccccc3)CC2(Cl)Cl)cc1C (configuration not stated) | > 100 µM (inactive) | > 100 | > 100 | > 100
54 | Cc1nc2ccccc2c(=O)n1/N=C/c1c(O)ccc2oc3c(c12)CCCC3 | > 100 µM (inactive) | > 100 | > 100 | > 100
55 | COc1cc2c(cc1OC)C(c1ccccc1)CC2=O (configuration not stated) | 43.3 µM (inactive) | 94 | > 100 | > 100
56 | COc1ccc(C(=O)Nc2ccc(C(=O)OCC(=O)c3ccccc3)cc2)cc1 | > 100 µM (inactive) | > 100 | > 100 | > 100
57 | O=C(/C=C/c1ccc2c(c1)OCO2)Nc1nc2ccccc2s1 | > 100 µM (inactive) | > 100 | > 100 | > 100
58 | Cc1ccc2nc(-c3ccc(NC(=S)NC(=O)C(C)C)cc3)sc2c1 | > 100 µM (inactive) | > 100 | > 100 | > 100
